Measurements published in PubChem BioAssay AID200 (DTP/NCI, 2004).
Where “and” joins values, the source holds several entries; their conditions need not be identical. Identical values can stand only once. Inconclusive results and toxic doses are left out.

System: B6C3F1 mice, B16 melanoma ip, median survival T/C
Assay: NCI In Vivo Anticancer Drug Screen. Data for tumor model B16 Melanoma (intraperitoneal) in B6C3F1 mice
Settings: endpoint: median survival time, higher = longer survival
How it was run: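 Values are T/C ratios: the measurement in treated animals divided by that in vehicle-treated controls, using survival or tumor size in mice carrying transplantable tumors.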

[1] = dose: 25.0 mg/kg/injection, schedule: Q01DX009 (ip), vehicle: saline with Tween-80
[2] = dose: 50.0 mg/kg/injection, schedule: Q01DX009 (ip), vehicle: saline with Tween-80
[3] = dose: 100.0 mg/kg/injection, schedule: Q01DX009 (ip), vehicle: saline with Tween-80
[4] = dose: 200.0 mg/kg/injection, schedule: Q01DX009 (ip), vehicle: saline with Tween-80

In the case of `Nc1nc(F)nc2c1ncn2C1OC(COP(=O)(O)O)C(O)C1O` (centres undefined), the T/C (dose: 12.5 mg/kg/injection, schedule: Q01DX009 (ip), vehicle: suspension in saline) is reported as 90 % of control, the T/C (dose: 25.0 mg/kg/injection, schedule: Q01DX009 (ip), vehicle: suspension in saline) is reported as 97 % of control and the T/C (dose: 50.0 mg/kg/injection, schedule: Q01DX009 (ip), vehicle: suspension in saline) is reported as 93 % of control. The T/C (dose: 100.0 mg/kg/injection, schedule: Q01DX009 (ip), vehicle: suspension in saline) was 105 % of control.

For `O=C/C=C/c1cccc([N+](=O)[O-])c1`, the T/C [1] was 107 % of control, the T/C [2] was 116 % of control and the T/C [3] was 118 % of control. The T/C [4] was 124 % of control.

In the case of `Cc1ccccc1N(C=O)c1ccccc1C`, the T/C [3] is reported as 97 % of control, the T/C [4] is reported as 97 % of control and the T/C (dose: 400.0 mg/kg/injection, schedule: Q01DX009 (ip), vehicle: saline with Tween-80) is reported as 97 % of control.

`O=CC(CO)CC(C=O)n1cnc2c(=O)[nH]cnc21` (centres undefined) was tested, and the T/C (dose: 37.5 mg/kg/injection, schedule: Q01DX009 (ip), vehicle: saline) was 106 % of control, the T/C (dose: 75.0 mg/kg/injection, schedule: Q01DX009 (ip), vehicle: saline) was 108 % of control and the T/C (dose: 150.0 mg/kg/injection, schedule: Q01DX009 (ip), vehicle: saline) was 100 % of control. For the same molecule, the T/C (dose: 300.0 mg/kg/injection, schedule: Q01DX009 (ip), vehicle: saline) was 111 % of control.

For `CC1C(=O)c2cc3c(cc2CCN(C)Cc2c1ccc1c2OCO1)OCO3` (centres undefined), the T/C (dose: 5.0 mg/kg/injection, schedule: Q01DX009 (ip), vehicle: saline with Tween-80) was 100 % of control, the T/C (dose: 10.0 mg/kg/injection, schedule: Q01DX009 (ip), vehicle: saline with Tween-80) was 104 % of control and the T/C (dose: 20.0 mg/kg/injection, schedule: Q01DX009 (ip), vehicle: saline with Tween-80) was 103 % of control.

With `COC1=C2C[C@@H](C)C[C@@H](OC)[C@@H](O)[C@H](C)/C=C(\C)[C@@H](OC(N)=O)[C@H](OC)/C=C\C=C(/C)C(=O)NC(=CC1=O)C2=O` the T/C (dose: 0.12 mg/kg/injection, schedule: Q01DX009 (ip), vehicle: saline with Tween-80) was 103 % of control and 106 % of control, the T/C (dose: 0.13 mg/kg/injection, schedule: Q01DX009 (ip), vehicle: saline with Tween-80) was 105 % of control and the T/C (dose: 0.25 mg/kg/injection, schedule: Q01DX009 (ip), vehicle: saline with Tween-80) was 108 % of control and 118 % of control. For the same molecule, the T/C (dose: 0.5 mg/kg/injection, schedule: Q01DX009 (ip), vehicle: saline with Tween-80) was 122 % of control and 102 % of control and 105 % of control, the T/C (dose: 1.0 mg/kg/injection, schedule: Q01DX009 (ip), vehicle: saline with Tween-80) was 109 % of control and 102 % of control and the T/C (dose: 2.0 mg/kg/injection, schedule: Q01DX009 (ip), vehicle: saline with Tween-80) was 123 % of control and 106 % of control.

With `Nc1c(/C=C/c2cc3cc(C4=NCCN4)ccc3o2)[nH]c2cc(C3=NCCN3)ccc12` the T/C (dose: 1.5 mg/kg/injection, schedule: Q01DX009 (ip), vehicle: Klucel (hydroxypropylcellulose) (HPC)) was 108 % of control, the T/C (dose: 3.0 mg/kg/injection, schedule: Q01DX009 (ip), vehicle: Klucel (hydroxypropylcellulose) (HPC)) was 98 % of control and the T/C (dose: 6.0 mg/kg/injection, schedule: Q01DX009 (ip), vehicle: Klucel (hydroxypropylcellulose) (HPC)) was 95 % of control. The T/C (dose: 12.0 mg/kg/injection, schedule: Q01DX009 (ip), vehicle: Klucel (hydroxypropylcellulose) (HPC)) was 98 % of control, the T/C (dose: 12.5 mg/kg/injection, schedule: Q01DX009 (ip), vehicle: Klucel (hydroxypropylcellulose) (HPC)) was 90 % of control and the T/C (dose: 24.0 mg/kg/injection, schedule: Q01DX009 (ip), vehicle: Klucel (hydroxypropylcellulose) (HPC)) was 90 % of control. For the same molecule, the T/C (dose: 25.0 mg/kg/injection, schedule: Q01DX009 (ip), vehicle: Klucel (hydroxypropylcellulose) (HPC)) was 89 % of control.

With `Nc1ccc2ccc(O)cc2c1` the T/C [1] was 104 % of control, the T/C [2] was 97 % of control and the T/C [3] was 105 % of control.

In the case of `O=NN(CCF)C(=O)NC1CCC(=O)NC1=O` (centres undefined), the T/C (dose: 7.5 mg/kg/injection, schedule: Q01DX001 (ip), vehicle: saline) is reported as 192 % of control, the T/C (dose: 15.0 mg/kg/injection, schedule: Q01DX001 (ip), vehicle: saline) is reported as 194 % of control and the T/C (dose: 30.0 mg/kg/injection, schedule: Q01DX001 (ip), vehicle: saline) is reported as 235 % of control. For the same molecule, the T/C (dose: 60.0 mg/kg/injection, schedule: Q01DX001 (ip), vehicle: saline) was 233 % of control.

In the case of `COc1cccc2c1C(=O)c1c(O)c3c(c(O)c1C2=O)C[C@@](O)(/C(C)=N/NC(N)=S)C[C@@H]3OC1CC(N)C(O)C(C)O1` (some centres undefined), the T/C (dose: 12.5 mg/kg/injection, schedule: Q01DX001 (ip), vehicle: water) is reported as 155 % of control and 166 % of control, the T/C (dose: 25.0 mg/kg/injection, schedule: Q01DX001 (ip), vehicle: water) is reported as 185 % of control and 202 % of control and the T/C (dose: 50.0 mg/kg/injection, schedule: Q01DX001 (ip), vehicle: water) is reported as 185 % of control and 220 % of control. For the same molecule, the T/C (dose: 100.0 mg/kg/injection, schedule: Q01DX001 (ip), vehicle: water) was 201 % of control.

For `Nc1ncnc2c1ncn2C1OC(CO)C(O)C1O` (centres undefined), the T/C (dose: 1.56 mg/kg/injection, schedule: Q01DX009 (ip), vehicle: saline) was 94 % of control, the T/C (dose: 3.12 mg/kg/injection, schedule: Q01DX009 (ip), vehicle: saline) was 94 % of control and the T/C (dose: 6.25 mg/kg/injection, schedule: Q01DX009 (ip), vehicle: saline) was 96 % of control. For the same molecule, the T/C (dose: 12.5 mg/kg/injection, schedule: Q01DX009 (ip), vehicle: saline) was 107 % of control, the T/C (dose: 25.0 mg/kg/injection, schedule: Q01DX009 (ip), vehicle: saline) was 63 % of control and the T/C (dose: 50.0 mg/kg/injection, schedule: Q01DX009 (ip), vehicle: saline) was 45 % of control. The T/C (dose: 100.0 mg/kg/injection, schedule: Q01DX009 (ip), vehicle: saline) was 37 % of control.

For `O=C(CO)c1ccc([N+](=O)[O-])cc1`, the T/C (dose: 3.12 mg/kg/injection, schedule: Q01DX009 (ip), vehicle: saline with Tween-80) was 113 % of control, the T/C (dose: 6.25 mg/kg/injection, schedule: Q01DX009 (ip), vehicle: saline with Tween-80) was 94 % of control and the T/C [1] was 105 % of control. For the same molecule, the T/C [2] was 100 % of control and the T/C [3] was 93 % of control.
